Peptide text beside a SMILES is read from it. * marks the point of attachment. Cbz = O=C(OCc1ccccc1)*

Experiment [1] concerns the target T1, Papain (Carica papaya, UniProt P00784).
T1 sequence (P00784 whole entry): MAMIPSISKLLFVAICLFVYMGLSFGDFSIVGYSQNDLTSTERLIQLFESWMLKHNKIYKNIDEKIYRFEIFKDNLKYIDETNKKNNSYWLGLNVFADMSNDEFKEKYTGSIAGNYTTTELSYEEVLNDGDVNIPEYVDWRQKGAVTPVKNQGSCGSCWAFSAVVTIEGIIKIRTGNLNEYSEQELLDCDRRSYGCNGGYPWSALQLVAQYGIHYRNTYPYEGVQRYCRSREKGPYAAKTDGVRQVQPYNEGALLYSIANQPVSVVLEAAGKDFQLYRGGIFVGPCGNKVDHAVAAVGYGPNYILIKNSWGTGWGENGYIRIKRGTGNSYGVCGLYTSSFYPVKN
Kind of experiment: Inhibition of papaya papain using BAPNA as substrate assessed as p-nitroaniline release by spectrophotometric analysis.

Experiment [2] addresses T1, Papain. Kind of experiment: Inhibition of papaya papain using methyl hippurate as substrate by titrimetric method.
Experiment [3] deals with T1, Papain. Kind of experiment: Inhibition of papaya papain.
In the next experiment the target is Cathepsin B (Homo sapiens, UniProt P07858). Kind of experiment: Inhibition of cathepsin B.

In general, IC50 refers to the point on the concentration scale where inhibition reaches its midpoint. Turning to `CCOP(=O)(/C=C/C(NC(=O)[C@H](Cc1ccccc1)NC(=O)OC(C)(C)C)c1ccccc1)OCC` (mixture of isomers), the IC50 on Papain [1] worked out at 40 µM.

What is called Ki is the equilibrium dissociation constant of an inhibitor or competing ligand from its target. The low end stands for higher affinity, the high end for lower affinity. `COC(=O)N[C@@H](Cc1ccccc1)C(=O)NCC#N`: the affinity on Papain [2] corresponds to a Ki of 6.89 mM.

Consider `CCOP(=O)(/C=C/C(NC(=O)[C@H](Cc1ccccc1)NC(=O)[C@H](Cc1ccccc1)NC(=O)OCc1ccccc1)c1ccccc1)OCC` (mixture of isomers), for which the IC50 at Papain [1] was determined as 125 µM.

Regarding `CCOP(=O)(/C=C/C(NC(=O)[C@H](CC(C)C)NC(=O)[C@H](Cc1ccccc1)NC(=O)OC(C)(C)C)c1ccccc1)OCC` (mixture of isomers), the IC50 on Papain [1] was found to be 132 µM.

Compound `CC(C)[C@H](NC(=O)[C@H](CCCNC(=N)N)NC(=O)N[C@@H](Cc1ccccc1)C(=O)O)C(=O)N[C@H](C=O)CCCNC(=N)N` [ANTIPAIN] showed an inhibitory constant (Ki) at Papain [3] of 0.265 mM.

For `CC[C@H](C)[C@H](NC(=O)[C@H](CCCNC(=N)N)NC(=O)OCc1ccccc1)C(=O)N[C@H](/C=N/NC(N)=O)Cc1ccccc1`, the Ki at Papain [3] worked out at 2.3e-05 mM; on Cathepsin B, 0.0005 mM.

Consider `C[C@H](NC(=O)OCc1ccccc1)C(=O)N[C@@H](Cc1ccccc1)C(=O)OCF`, for which the affinity on Cathepsin B, expressed as Ki, was 174 mM. This counts as millimolar.

With `CCOP(=O)(/C=C/C(NC(=O)[C@H](Cc1ccccc1)NC(=O)OCc1ccccc1)c1ccccc1)OCC` (mixture of isomers), the IC50 at Papain [1] was found to be 30 µM.

In the case of `CCOP(=O)(/C=C/C(NC(=O)[C@H](CC(C)C)NC(=O)OC(C)(C)C)c1ccccc1)OCC` (mixture of isomers), the concentration for half-maximal inhibition (IC50) on Papain [1] was above 200 µM.

For the compound `CCOP(=O)(/C=C/C(NC(=O)[C@H](CC(C)C)NC(=O)OCC1c2ccccc2-c2ccccc21)c1ccccc1)OCC` (mixture of isomers), the IC50 at Papain [1] is above 200 µM.

Regarding `COC(=O)CNC(=O)[C@H](Cc1ccccc1)NC(=O)OCc1ccccc1` (Cbz-Phe-Gly-OMe), the inhibitory constant (Ki) is 2.7 mM on Papain [3] and 13.5 mM at Cathepsin B.

On to `CCOP(=O)(/C=C/C(NC(=O)[C@H](CC(C)C)NC(=O)OCc1ccccc1)c1ccccc1)OCC` (mixture of isomers), for which, at Papain [1], the half-inhibitory concentration (IC50) was above 200 µM.

For `CCOP(=O)(/C=C/C(NC(=O)[C@H](Cc1c[nH]c2ccccc12)NC(=O)OCc1ccccc1)c1ccccc1)OCC` (mixture of isomers), at Papain [1], the 50% inhibitory concentration (IC50) is above 200 µM.

Regarding `O=C(O)CNC(=O)[C@H](Cc1ccccc1)NC(=O)OCc1ccccc1` (Cbz-Phe-Gly-OH), the Ki on Papain [3] was 19.6 mM; on Cathepsin B, 5.61 mM.

As for `CCOP(=O)(/C=C/C(NC(=O)[C@H](Cc1ccc(O)cc1)NC(=O)OCc1ccccc1)c1ccccc1)OCC` (mixture of isomers), the IC50 on Papain [1] turned out to be 54 µM.

For `CCOP(=O)(/C=C/C(NC(=O)[C@H](Cc1ccccc1)NC(=O)[C@H](Cc1ccccc1)NC(=O)OC(C)(C)C)c1ccccc1)OCC` (mixture of isomers), the concentration for half-maximal inhibition (IC50) at Papain [1] was determined as 83 µM.
